Strand notation (5' to 3'): a small letter for the sugar, then the base; units joined by * are phosphorothioate-linked, units joined directly phosphodiester-linked; [ ] holds rarer units or linkages, { } end groups; capitals alone tell only the bases. m = 2'-O-methyl; f = 2'-fluoro
Key:
[1] = test system: SOD1; test: Test Example 2: inhibitory activity of NM031 conjugated siRNA on SOD1 by intrathecal administration to mice; assay type: in vivo, C57BL/6j mice; details: intrathecal, 800 μg per mouse, D9
Procedure: 6-8 Week-old C57BL/6j mice were randomly grouped into 4 groups by body weight. PBS group was dosed with siRNA-free PBS solution, RX899001 group was dosed with siRNA compound RX899001 without vector conjugation, RZ899001 group was dosed with siRNA RZ899001 (the sense strand with the Uhd conjugation at Position 4) prepared in Example 1, and RZ899008 was dosed with siRNA RZ899008 (the sense strand with the NM031 conjugation at Position 4) prepared in Example 1. Mices in each group were anesthetized with isoflurane. After anesthetization, lumbar region thereof was sprayed wet with 75% disinfecting alcohol. 10 μL (concentration […]) of siRNA drug containing PBS solvent was sucked with an insulin injection needle, the mouse lumbar region was pinched with the left-hand index finger and thumb, patella crest was propped against, and needle was held by the right hand. The needle was bent by forceps in advance, wherein the needle was first bent in the middle by 80° to 90°, then a front half part of the needle was bent in half, and the whole needle was bent in an are shape of about 60° to 90°. Mouse abdominal region was padded with an article with a thickness of about 2 cm. The needle was inserted from a joint of lumbar spines L5 and L6 of mice, and when inserting the needle, the hand was slightly inclined forwards to insert the needle. […] After completion of the injection, the needle was slowly withdrawn at uniform velocity. The administration dose to each mouse in RX899001 group, RZ899001 group and RZ899008 group was 800 μg, a total volume injected was 10 μL, and the PBS group was administered with the same volume of siRNA-free PBS solution. After the animals woke up, the animals were returned back to the animal feeding room and further fed. The day of administration was recorded as first day (D1), and the mice were sacrificed on ninth day (D9). Lumbar spine, thoracic spine and cerebellum were respectively taken and stored in the RNAlater.
RNA extraction: an appropriate amount of lumbar spine, thoracic spine and cerebellum samples were respectively taken out from the RNAlater, and smashed for 60 s in Tissuelyser type II full-automatic tissue homogenizer, and total RNAs of various tissue samples were extracted using the full-automatic nucleic acid extraction instrument and the nucleic acid extraction kit from Zhejiang Hanwei Science and Technology Co. Ltd. according to methods described in instructions. Reverse transcription reaction: 1 μg of the extracted total RNAs of various tissue samples were respectively taken, and configured into 20 μL of reverse transcription system according to a method described in kit instructions by using a reverse transcription kit (Reverse Transcription System, A3500) from Promega Corporation and selecting Oligo (dT)15 reverse transcription primers, and the reverse transcription reaction was completed. After the reaction was ended, 80 μL of RNase-Free water was added into the reverse transcription system to provide cDNA solution for Real-time PCR detection.
Real-time PCR detection: 20 μL of Real-time PCR reaction system per PCR detection well was configured according to a method described in kit instructions using SYBR™ Select Master Mix (Catalog number: 4472908) reagent from ABI company. Each detection system contained 5 μL of cDNA template obtained from the above reverse transcription reaction, 10 μL of SYBR™ Select Master Mix, 0.5 μL of 10 μM upstream primers, 0.5 μL of 10 μM downstream primers (see TABLE 5 for primer information), and 4 μL of RNase-Free H2O. The configured reaction system was subjected to Real-time PCR amplification on ABI StepOnePlus PCR instrument by a three-step method, wherein an amplification procedure was pre-denaturation at 95° C. for 10 min, then denaturation at 95° C. for 30 s, annealing at 60° C. for 30 s, and extension at 72° C. for 30 s; and processes of denaturation, annealing, and extension were repeated for 40 cycles. […]

[2] = test system: target gene SOD1; test: Test Example 3: inhibitory activity of lipid conjugated siRNA sequences on SOD1 by lateral ventricle administration to mice; assay type: in vivo, C57BL/6j mice; details: 200 μg per mouse, D5
Procedure: 6-8 Week-old C57BL/6j mice were randomly grouped by body weight. Mice in each group were administered with siRNA by lateral ventricle administration, with an administration dose per mouse depending on a specific test. Taking Bregma in mouse brain as point 0 (origin), coordinates of right ventricle were found using the cerebral stereotaxic apparatus and position was marked on surface of skull (position of lateral ventricle was AP (anteroposterior, bregma anterior and posterior): −0.58 mm, ML (mediolateral, left and right of middle raphe): −1.2 mm, DV (dorsoventral, up and down cerebral dura mater plane): −2.2 mm). A dental electric drill was used to drill in the skull above a position of interest, and then medicament was injected into the lateral ventricle by a micro-dosing pump, wherein a total injection volume was 5 μL, and injection duration was 10 min. Needle was retained for 5 min after completion of injection, and then slowly withdrawn. Afterwards, needle hole was sealed with biomedical glue, and then head skin was adhered. After animals woke up, the animals were returned back to animal house and further fed. PBS control group was administered with the same volume of siRNA-free PBS solution. The day of administration was recorded as 0 day (D0), and the mice were sacrificed at observation point after the administration. Different parts of brain region were respectively taken and stored in the RNAlater.
RNA extraction: the above tissue samples were taken out from the RNAlater, and smashed for 60 s in Tissuelyser type II full-automatic tissue homogenizer, and total RNAs of various tissue samples were extracted using the full-automatic nucleic acid extraction instrument and the nucleic acid extraction kit from Zhejiang Hanwei Science and Technology Co. Ltd. according to methods described in instructions.
Reverse transcription reaction: 1 μg of the extracted total RNAs of the tissue samples were taken, and configured into 20 μL of reverse transcription system according to a method described in kit instructions by using a reverse transcription kit (Reverse Transcription System, A3500) from Promega Corporation and selecting Oligo (dT)15 reverse transcription primers, and the reverse transcription reaction was completed. After the reaction was ended, 80 μL of RNase-Free water was added into the reverse transcription system to provide cDNA solution for Real-time PCR detection.
Real-time PCR detection: 20 μL of Real-time PCR reaction system per PCR detection well was configured according to a method described in kit instructions using SYBR™ Select Master Mix (Catalog number: 4472908) reagent from ABI company. Each detection system contained 5 μL of cDNA template obtained from the above reverse transcription reaction, 10 μL of SYBR™ Select Master Mix, 0.5 μL of 10 μM upstream primers, 0.5 μL of 10 μM downstream primers, and 4 μL of RNase-Free H2O. The configured reaction system was subjected to Real-time PCR amplification on ABI StepOnePlus PCR instrument by a three-step method, wherein an amplification procedure was pre-denaturation at 95° C. for 10 min, then denaturation at 95° C. for 30 s, annealing at 60° C. for 30 s, and extension at 72° C. for 30 s; and processes of denaturation, annealing, and extension were repeated for 40 cycles. Gene expression differences were calculated by the ΔΔCt method after completion of the procedure.
In the real-time fluorescence quantitative PCR method, relative quantitative calculation of remaining expression level and inhibition rate of gene mRNA of interest in various test groups was performed by the ΔΔCt method, and the calculation method is as follows: […]

Row | Substance | Cerebellum Mean value of inhibition rate % [1] | Lumbar spine Mean value of inhibition rate % [1] | Thoracic spine Mean value of inhibition rate % [1] | Cerebellum Mean value of inhibition rate % [2] | Cortex Mean value of inhibition rate % [2] | Hippocampus Mean value of inhibition rate % [2]
1 | RX899001: siRNA compound without vector conjugation, SOD1 sequence; sense SEQ ID NO: 1, antisense SEQ ID NO: 2 (sense mU*mU*mUmUmAmAfUfCfCmUmCmAmCmUmCmUmAmAmA; antisense mU*fU*mUmAmGfAmGmUmGmAmGmGmAfUmUfAmAmAmA*mU*mG) [reference compound] | 14.01% | 7.54% | 41.98% | – | – | –
2 | RZ899001: control siRNA, the sense strand with the Uhd conjugation at Position 4; SEQ ID NO: 4 / 2 (sense UUUNAAUCCUCACUCUAAA; antisense UUUAGAGUGAGGAUUAAAAUG; Uhd conjugate at sense position 4; modified_base 1..2 OTHER; 2'-methoxy and 5'-thiophosphate modified nucleotides; modified_base 3 OTHER; 2'-methoxy modified nucleotide; modified_base 4 OTHER; n is the synthetic nucleotide analog Uhd as described in the disclosure.; modified_base 5..6 OTHER; 2'-methoxy modified nucleotides; modified_base 7..9 OTHER; 2'-fluoro modified nucleotides; modified_base 10..19 OTHER; 2'-methoxy modified nuc; modified_base 1 OTHER; 2'-methoxy and 5'-thiophosphate modified nucleotide; modified_base 2 OTHER; 2'-fluoro and 5'-thiophosphate modified nucleotide; …) [reference compound] | 60.22% | 64.13% | 60.27% | – | – | –
3 | RZ899052: siRNA, the sense strand with the NM058 conjugation at Position 5; SEQ ID NO: 5 / 22 (sense UUUUNAUCCUCACUCUAAA; antisense UUUAGAGUGAGGAUUAAAAUG; NM058 conjugate at sense position 5; modified_base 1..2 OTHER; 2'-methoxy and 5'-thiophosphate modified nucleotides; modified_base 3..4 OTHER; 2'-methoxy modified nucleotides; modified_base 5 OTHER; n is the synthetic nucleotide analog NM058 as described in the disclosure(e.g., NM058-1 (1N-(9-[(2S,5R)-5-{[bis(4-methoxyphenyl)(phenyl)methoxy]methyl}-3,4-dihydroxytetrahydrofuran-2-yl]-9H-purin-6-yl)benzamide)).; modified_base 6 OTHER; modified_base 1 OTHER; 2'-methoxy and 5'-thiovinylphosphonate modified nucleotide; modified_base 2 OTHER; 2'-fluoro and 5'-thiophosphate modified nucleotide; …) | – | – | – | 53.02% | 62.93% | 87.35%
4 | RZ899053: siRNA, the sense strand with the NM058 conjugation at Position 6; SEQ ID NO: 6 / 22 (sense UUUUANUCCUCACUCUAAA; antisense UUUAGAGUGAGGAUUAAAAUG; NM058 conjugate at sense position 6; modified_base 1..2 OTHER; 2'-methoxy and 5'-thiophosphate modified nucleotides; modified_base 3..5 OTHER; 2'-methoxy modified nucleotides; modified_base 6 OTHER; n is the synthetic nucleotide analog NM058 as described in the disclosure(e.g., NM058-1 (1N-(9-[(2S,5R)-5-{[bis(4-methoxyphenyl)(phenyl)methoxy]methyl}-3,4-dihydroxytetrahydrofuran-2-yl]-9H-purin-6-yl)benzamide)).; modified_base 7..9 OTHE; modified_base 1 OTHER; 2'-methoxy and 5'-thiovinylphosphonate modified nucleotide; modified_base 2 OTHER; 2'-fluoro and 5'-thiophosphate modified nucleotide; …) | – | – | – | 42.55% | 55.87% | 74.13%

Reference: patent US20260132165A1, “MODIFIED NUCLEOSIDE ANALOGUE AND USE THEREOF, AND NUCLEOSIDE ANALOGUE-CONTAINING DOUBLE-STRANDED OLIGONUCLEOTIDE AND USE THEREOF” (RIGERNA THERAPEUTICS (BEIJING) CO., LTD., priority 2023, published 2026)
